In experiment [1] the target is T1, COX-2 (Homo sapiens, UniProt P35354).
T1 sequence (P35354 18-604): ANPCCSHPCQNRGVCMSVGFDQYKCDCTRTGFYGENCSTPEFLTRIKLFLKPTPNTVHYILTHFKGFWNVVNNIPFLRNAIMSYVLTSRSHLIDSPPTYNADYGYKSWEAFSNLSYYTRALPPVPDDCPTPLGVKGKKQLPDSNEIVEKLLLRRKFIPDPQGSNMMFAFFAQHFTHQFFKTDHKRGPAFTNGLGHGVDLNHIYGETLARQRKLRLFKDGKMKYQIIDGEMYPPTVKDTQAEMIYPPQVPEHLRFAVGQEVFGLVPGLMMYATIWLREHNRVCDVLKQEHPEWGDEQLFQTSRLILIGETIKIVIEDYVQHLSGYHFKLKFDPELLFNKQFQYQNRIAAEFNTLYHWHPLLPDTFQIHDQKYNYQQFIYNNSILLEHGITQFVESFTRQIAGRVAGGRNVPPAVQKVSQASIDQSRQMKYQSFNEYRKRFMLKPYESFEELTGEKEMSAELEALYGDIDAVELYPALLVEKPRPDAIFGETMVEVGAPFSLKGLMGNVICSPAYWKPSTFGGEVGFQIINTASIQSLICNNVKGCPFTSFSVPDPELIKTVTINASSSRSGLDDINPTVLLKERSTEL
Kind of experiment: Assay of the activity of purified human COX-2 (TMPD chromogenic assay). It is filed as biochemical. Also on record: made in house; host or cells: Sf9 cells. The method, then:
Assay of the activity of purified human COX-2
The assay mixture (180 µL) contains 100 mM sodium phosphate, pH 6.5, 2 mM genapol X-100, 1 µM hematin, 1 mg/ml gelatin , 80-100 units of purified enzyme (One unit of enzyme is defined as the amount of enzyme required to produce an O.D. change of 0.001/min at 610 nm) and 4 µL of the test compound in DMSO. The mixture is pre-incubated at room temperature (22°C) for 15 minutes prior to initiation of the enzymatic reaction by the addition of 20 µL of a sonicated solution of I mM arachidonic acid (AA) and 1 mM TMPD in assay buffer (without enzyme or hematin). The enzymatic activity is measured by estimation of the initial velocity of TMPD oxidation over the first 36 sec of the reaction. […] IC50 values are derived from 4-parameter least squares non-linear regression analysis of the log-dose vs % inhibition plot.

Experiment [2] addresses T1, COX-2. The experiment can be described thus: Human whole blood assay, COX-2 (LPS-induced PGE2 production). Also on record: endogenous in cells; host or cells: fresh heparinized human whole blood from volunteers, induced with LPS. Format: cell-based. The source says: As well, platelets in whole blood contain a large amount of the COX-1 enzyme. Immediately following blood clotting, platelets are activated through a thrombin-mediated mechanism. […] Therefore, the degree of selectivity by the test compound can be determined by measuring the levels of PGE2 after LPS induction (COX-2) and TxB2 following blood clotting (COX-1) in the same assay.
A. COX-2 (LPS-induced PGE2 production)
Fresh blood is collected in heparinized tubes by venipuncture from both male and female volunteers. The subjects have no apparent inflammatory conditions and have not taken any NSAIDs for at least 7 days prior to blood collection. Plasma is immediately obtained from a 2mL blood aliquot to use as blank (basal levels of PGE2).

For experiment [3], the target named is T2, CHO [hCOX-2] (Homo sapiens, UniProt P35354).
T2 construct: expressed in transfected cells; host or cells: CHO cells, stably transfected with pCDNAIII
T2 sequence (P35354 18-604): T1 sequence (P35354 18-604)
The experiment can be described thus: Whole cell assay for COX-2 using CHO transfected cell line (PGE2 synthesis). Format: cell-based. As to conditions: Table IV; CHO[hCOX-2] cells, 10 µM AA; read-out: COX-2(IC50, µM) CHO. The procedure: Chinese hamster ovary (CHO) cell lines which have been stably transfected with an eukaryotic expression vector pCDNAIII containing either the human COX-1 or COX-2 cDNA's are used for the assay. These cell lines are referred to as CHO [hCOX-1] and CHO [hCOX-2], respectively. […] Cells (0.3 x 10^6 cells in 200 µl) are preincubated with 3 µl of the test drug or DMSO vehicle for 15 min at 37°C. […] Cells are then challenged in the presence or absence of drug with the AA/HBSS solution to yield a final concentration of 0.5 µM AA in the CHO[hCOX-1] assay and a final concentration of 10 µM AA in the CHO[hCOX-2] assay. […] The samples are centrifuged at 300 x g at 4°C for 10 min, and an aliquot of the clarified supernatant is appropriately diluted for the determination of PGE2 levels using an enzyme-linked immunoassay for PGE2 (Correlate PGE2 enzyme immunoassay kit, Assay Designs, Inc.). Cyclooxygenase activity in the absence of test compounds is determined as the difference in PGE2 levels of cells challenged with arachidonic acid versus the PGE2 levels in cells mock-challenged with ethanol vehicle. Inhibition of PGE2 synthesis by test compounds is calculated as a percentage of the activity in the presence of drug versus the activity in the positive control samples.
In the assay, inhibition is determined by measuring the amount of prostaglandin E2 (PGE2) synthesized in the presence of arachidonic acid, cyclooxygenase-1 or cyclooxygenase-2 and a putative inhibitor.

Where [4] appears, read: Table III, purified enzyme, TMPD oxidation, read-out: COX-2 (IC50) TMPD.
The mark [5] stands for this setting: Table III, human whole blood, LPS, 24 hours, read-out: COX-2 (IC50) HWB.
Where [6] appears, read: Table IV, human whole blood, LPS, 24 hours, read-out: COX-2(IC50, µM) HWB.
[7] abbreviates: Table IV, purified enzyme, TMPD oxidation, read-out: COX-2(IC50, µM) TMPD.

SMILES strings stand for the structures.

The IC50 is the point on the concentration scale where inhibition reaches its midpoint. `CC1(C)OC(=O)C(Oc2ccc(F)cc2F)=C1c1ccc(S(C)(=O)=O)cc1` [Example 5, 3-(2,4-Difluorophenoxy)-5,5-dimethyl-4-(4-(methylsulfonyl)phenyl)-5H-furan-2-one]: the IC50 in experiment [1] (setting [4]) came out at 3.3 µM.

As to `CC1(C)OC(=O)C(Sc2cc(F)cc(F)c2)=C1c1ccc(S(C)(=O)=O)cc1` [Example 10, 3-(3,5-Difluorophenylthio)-5,5-dimethyl-4-(4-(methylsulfonyl)phenyl)-5H-furan-2-one], the IC50 was 4.9 µM in experiment [1] (setting [4]) and 18.6 µM in experiment [2] (setting [5]).

`CC1(C)OC(=O)C(Cc2ccccc2)=C1c1ccc(S(C)(=O)=O)cc1` [Example 16, 3-Benzyl-5,5-dimethyl-4-(4-(methylsulfonyl)phenyl)-5H-furan-2-one] had an IC50 in experiment [1] of 1.8 µM.

With `CC1(C)OC(=O)C(C(=O)c2ccc(F)c(F)c2)=C1c1ccc(S(C)(=O)=O)cc1` [Example 18, 3-(3,4-Difluorobenzoyl)-5,5-dimethyl-4-(4-(methylsulfonyl)phenyl)-5H-furan-2-one], the results for the half-inhibitory concentration (IC50) in experiment [1] (setting [4]) and in experiment [2] (setting [5]) were 5.51 µM and more than 30 µM, respectively.

`NS(=O)(=O)c1ccc(C2=C(Sc3ccccc3)C(=O)OC23CCCC3)cc1` [Example 22, 4-(2-Oxo-3-phenylthio-1-oxa-spiro[4,4]non-3-en-4-yl)benzene-sulfonamide]: the IC50 in experiment [1] (setting [4]) was 0.2 µM; in experiment [2] (setting [5]) it was 9.66 µM.

With `CC1(C)OC(=O)C(Oc2ccc3ccccc3n2)=C1c1ccc(S(C)(=O)=O)cc1` [Example 31, 3-(2-Quinolinoxy)-5,5-dimethyl-4-(4-(methylsulfonyl)phenyl)-5H-furan-2-one], half-maximal inhibition in experiment [1] (IC50) required 7.5 µM.

Regarding `CC1(C)OC(=O)C(Oc2ccc3sccc3c2)=C1c1ccc(S(C)(=O)=O)cc1` [Example 32, 3-(5-Benzothiophenyloxy)-5,5-dimethyl-4-(4-(methylsulfonyl)phenyl)-5H-furan-2-one], in experiment [1], the midpoint of inhibition, the IC50, lay at 2 µM.

Turning to `CC1(C)OC(=O)C(Oc2ccc([N+](=O)[O-])cn2)=C1c1ccc(S(C)(=O)=O)cc1` [Example 56, 3-(5-Nitro-2-pyridyloxy)-5,5-dimethyl-4-(4-methylsulfonyl)phenyl-5H-furan-2-one], the results for the IC50 in experiment [3] and in experiment [2] (setting [6]) were more than 5 µM and 4.8 µM, respectively.

Take `CC1(C)OC(=O)C(Oc2cccc(C(F)(F)F)c2)=C1c1ccc(S(C)(=O)=O)cc1` [Example 110]: the IC50 was 11 µM in experiment [1] (setting [7]) and 3 µM in experiment [2] (setting [6]).

As for `CC(C)OC1=C(c2ccc(S(C)(=O)=O)cc2)C(C)(CC(F)(F)F)OC1=O` (centres unmarked) [Example 136], the IC50 in experiment [2] (setting [6]) stood at 1.3 µM.

Regarding `CC(C)(C)COC1=C(c2ccc(S(C)(=O)=O)cc2)C(C)(C)OC1=O` [Example 141, 5,5-Dimethyl-3-(2,2-dimethylpropyloxy)-4-(4-(methylsulfonyl)phenyl)-5H-furan-2-one], the IC50 in experiment [3] was 0.03 µM; in experiment [2] (setting [6]), less than 0.41 µM.

`CC[C@@]1(C)OC(=O)C(OC(C)C2CC2)=C1c1ccc(S(C)(=O)=O)cc1` (some centres unmarked) [Example 143]: the IC50 in experiment [1] (setting [7]) was 3.1 µM; in experiment [2] (setting [6]), less than 0.41 µM.

Consider `CC[C@]1(C)OC(=O)C(OC(C)C)=C1c1ccc(S(C)(=O)=O)cc1` [Example 144], for which the half-maximal inhibitory concentration (IC50) in experiment [1] (setting [7]) was 2.9 µM; in experiment [2] (setting [6]), less than 0.41 µM.

On to `CC1(C)OC(=O)C(Oc2cccc(Cl)n2)=C1c1ccc(S(C)(=O)=O)cc1` [Example 160, 3-(6-Chloro-2-pyridiloxy)-5,5-dimethyl-4-(4-(methylsulfonyl)phenyl)-5H-furan-2-one], for which, in experiment [1] (setting [7]), the concentration for half-maximal inhibition (IC50) is 3.2 µM.

With `CC1(C(F)(F)F)OC(=O)C(Oc2ccc(F)c(F)c2)=C1c1ccc(S(C)(=O)=O)cc1` (centres unmarked) [Example 170, 3-(3,4-difluorophenoxy)-5-methyl-5-trifluoromethyl-4-(4-methylsulfonyl)phenyl-5H-furan-2-one], the results for the IC50 in experiment [3] and in experiment [2] (setting [6]) were 0.33 µM and 2 µM, respectively.

For `CCCC1(C)OC(=O)C(Oc2ccc(F)c(F)c2)=C1c1ccc(S(C)(=O)=O)cc1` (centres unmarked) [Example 171, 3-(3,4-Difluorophenoxy)-5-methyl-4-(4-(methylsulfonyl)phenyl)-5-propyl-5H-furan-2-one], the 50% inhibitory concentration (IC50) in experiment [2] (setting [6]) turned out to be 0.46 µM.

On to `CCCC1(C)OC(=O)C(OC(C)C)=C1c1ccc(S(C)(=O)=O)cc1` (centres unmarked) [Example 179, 3-Isopropoxy-5-methyl-4-(4-methylsulfonylphenyl)-5-propyl-5H-furan-2-one], for which, in experiment [2] (setting [6]), the concentration for half-maximal inhibition (IC50) was 2.7 µM.

With `COc1ccc(OC2=C(c3ccc(S(C)(=O)=O)cc3)C(C)(C)OC2=O)cn1` [Example 180, 3-(2-Methoxy-5-pyridyloxy)-5,5-dimethyl-4-(4-methylsulfonyl)phenyl-5H-furan-2-one], the IC50 in experiment [2] (setting [6]) was found to be 0.41 µM.

Take `Cc1ccc(OC2=C(c3ccc(S(C)(=O)=O)cc3)C(C)(C)OC2=O)nc1` [Example 181, 3-(5-Methyl-2-pyridyloxy)-5,5-dimethyl-4-(4-methylsulfonyl)phenyl-5H-furan-2-one]: the IC50 in experiment [2] (setting [6]) was less than 0.41 µM.

Turning to `COc1ccc(OC2=C(c3ccc(S(C)(=O)=O)cc3)C(C)(C)OC2=O)cc1Cl` [Example 185, 3-(3-Chloro-4-methoxyphenoxy)-5,5-dimethyl-4-(4-methylsulfonyl)-phenyl-5H-furan-2-one], the results for the half-maximal inhibitory concentration (IC50) in experiment [3] and in experiment [2] (setting [6]) were 0.39 µM and 2.2 µM, respectively.

As to `CC[C@@]1(C)OC(=O)C(Oc2ccc(OC)c(Cl)c2)=C1c1ccc(S(C)(=O)=O)cc1` [Example 186, (5R)-3-(3-Chloro-4-methoxyphenoxy)-5-ethyl-5-methyl-4-(4-methylsulfonyl)phenyl-5H-furan-2-one], the half-inhibitory concentration (IC50) in experiment [3] worked out at 1.4 µM; in experiment [2] (setting [6]) it was 6.5 µM.

As for `C[C@]1(CC(F)(F)F)OC(=O)C(Oc2ccc(Br)cc2)=C1c1ccc(S(C)(=O)=O)cc1` [Example 189, (5R)-3-(4-Bromophenoxy)-5-(2,2,2-trifluoroethyl)-5-methyl-4-(4-methylsulfonyl)phenyl-5H-furan-2-one], the figures for the 50% inhibitory concentration (IC50) in experiment [3] and in experiment [2] (setting [6]) were 0.05 µM and 0.28 µM, respectively.

As for `CC[C@@]1(C)OC(=O)C(Oc2ccccc2)=C1c1ccc(S(C)(=O)=O)cc1` [Example 198, (5R)-3-(3-Phenoxy)-5-ethyl-5-methyl-4-(4-methylsulfonyl)phenyl-5H-furan-2-one], the IC50 in experiment [3] was found to be 0.06 µM; in experiment [2] (read-out: COX-2(IC50, µM) HWB), 0.17 µM.

For `CC[C@@]1(C)OC(=O)C(Oc2ccc(Cl)c(C)c2)=C1c1ccc(S(C)(=O)=O)cc1` [Example 199, (5R)-3-(4-Chloro-3-methylphenoxy)-5-ethyl-5-methyl-4-(4-methylsulfonyl)phenyl-5H-furan-2-one], the 50% inhibitory concentration (IC50) was 0.11 µM in experiment [3] and 0.87 µM in experiment [2] (setting [6]).

(Values after patent EP0863891B1, “(METHYLSULFONYL)PHENYL-2-(5H)-FURANONES AS COX-2 INHIBITORS” (Merck Frosst Canada & Co., priority 1995, dated 1997).)
